Values of other authors, collected in patent publication US20040192601A1, “Lipid binding molecules and methods of use” (priority 2002, published 2004).

Tested on: PI3K
Conditions: W7 used at 100 μM; stated as a property of the calmodulin inhibitor

## NCCCCCCNS(=O)(=O)c1cccc2c(Cl)cccc12 [W7]
  Inhibition of PI3K activity: does not inhibit PI3K activity
